Results from patent US20250002475A1 (EPICS THERAPEUTICS, priority 2023, published 2025).

How the values were obtained:
[1] = target: T1, recombinant METTL3/METTL14 complex (Homo sapiens, UniProt Q86U44); assay: METTL3/14 Scintillation Proximity Assay (SPA), RNA methyltransferase activity; assay type: biochemical; details: 5.31 nM METTL3/14 complex, 250 nM RNA substrate, 1 μM 3H-SAM, 90 min; for compounds marked * best of the two separated forms
T1 construct: purchased Active Motif 311970; host or cells: Sf9 cells
T1 sequence (Q86U44 whole entry): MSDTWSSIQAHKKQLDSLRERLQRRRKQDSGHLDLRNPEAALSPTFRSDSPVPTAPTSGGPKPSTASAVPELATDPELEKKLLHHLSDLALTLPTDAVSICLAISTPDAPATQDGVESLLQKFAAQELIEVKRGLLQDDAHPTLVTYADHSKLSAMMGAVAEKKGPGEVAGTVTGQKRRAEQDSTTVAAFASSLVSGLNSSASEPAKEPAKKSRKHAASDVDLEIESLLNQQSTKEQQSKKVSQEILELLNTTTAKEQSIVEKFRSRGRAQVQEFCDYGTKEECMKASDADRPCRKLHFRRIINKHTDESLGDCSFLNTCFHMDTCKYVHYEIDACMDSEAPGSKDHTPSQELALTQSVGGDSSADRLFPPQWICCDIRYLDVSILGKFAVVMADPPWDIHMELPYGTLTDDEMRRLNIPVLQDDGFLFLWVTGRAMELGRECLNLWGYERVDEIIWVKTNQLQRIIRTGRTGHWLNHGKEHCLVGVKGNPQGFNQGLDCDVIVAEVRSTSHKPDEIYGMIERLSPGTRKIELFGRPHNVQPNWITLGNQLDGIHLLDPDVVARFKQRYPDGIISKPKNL
T1 sequence (Q9HCE5 whole entry partner): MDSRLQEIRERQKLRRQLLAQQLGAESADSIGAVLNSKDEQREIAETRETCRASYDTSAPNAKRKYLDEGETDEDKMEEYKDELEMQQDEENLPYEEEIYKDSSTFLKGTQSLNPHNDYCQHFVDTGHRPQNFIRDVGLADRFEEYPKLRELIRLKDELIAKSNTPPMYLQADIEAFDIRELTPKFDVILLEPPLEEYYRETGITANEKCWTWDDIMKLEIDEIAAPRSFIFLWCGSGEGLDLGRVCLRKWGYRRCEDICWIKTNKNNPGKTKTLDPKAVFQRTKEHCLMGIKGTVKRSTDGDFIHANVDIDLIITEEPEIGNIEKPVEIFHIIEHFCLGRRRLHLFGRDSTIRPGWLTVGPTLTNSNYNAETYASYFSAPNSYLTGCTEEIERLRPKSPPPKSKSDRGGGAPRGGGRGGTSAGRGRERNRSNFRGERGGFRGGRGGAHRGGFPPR

Caov-3 cells = assay: Caov-3 cellular viability assay (ATP-Lite, 72 h); assay type: cell-based; details: Homo sapiens, ATP-Lite luminescence, % viability relative to DMSO
Experimental: Caov-3 cell line was purchased from ATCC (ATCC® HTB-75™). Cells were isolated from the ovary of a ovarian cancer patient.
Caov-3 cells are cultured in DMEM (ATCC 30-2002) containing 10% heat-inactivated and 0.22 μm filtered FBS (Gibco 10270-106). The cells are seeded at 2.5E+4cell/cm^2 within the recommended subcultivation ratio of 1:3 to 1:6, as stated on the certificate of analysis issues by the provider of the cells.
Cellular viability assay: Caov-3 cells were plated (50 μL) in 96-well cell culture microplates (PS, F-Bottom black, Cellstar, Greiner 655086) at final concentration of 10000 cells/well. The compounds of the invention were dissolved in DMSO, and a titration curve was generated at 1000× final concentration. Compounds were then diluted 500× in tissue culture medium (RPMI-1640, 10% FBS). Then 50 μl of test compound were added to Caov-3 cells in a final DMSO concentration of 0.1%, final volume 100 μl. A gas permeable sealing membrane was applied to the plate to prevent evaporation (Breathe-Easy sealing membrane, Sigma Z380059-1PK) and cells were incubated for 72 h at 37° C., 5% CO2, 80% RH. After 72 h of treatment, the plates were taken out of the incubator and left for a few minutes at room temperature. 100 μl of the reconstituted reagent ATP-Lite One Step (Perkin Elmer, 6016739) were added to each well. The plates were shaken for 2 min at 700 rpm and placed in the dark for 10 minutes at room temperature before measurement of luminescence intensity with Envision instrument. The raw data were expressed in RLU. Results were expressed in % of viability relative to DMSO control and an IC50 was calculated based on the concentration-response profile of individual compounds.

Kasumi-1 cells = assay: Kasumi-1 cellular viability assay (ATP-Lite, 72 h); assay type: cell-based; details: Homo sapiens, ATP-Lite luminescence, % viability relative to DMSO
Summary of the method: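 Kasumi-1 AML cells, 15000/well in RPMI-1640 with 10% FBS, were exposed to compound titrations (0.1% final DMSO) for 72 h at 37 °C, 5% CO2. ATP-Lite One Step luminescence gave % viability versus DMSO control, and IC50 came from the concentration-response.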

CC(n1cc(-c2cc(N3CCCC3)cnn2)nn1)n1ccc(N2CCC[C@@H](NCC3CC3)C2)cc1=O (single isomer, unassigned) [Compound 206]
IC50 [1]: ≤ 50 nM
IC50 (Caov-3 cells): ≤ 500 nM
IC50 (Kasumi-1 cells): 500 to 5000 nM

CC(n1cc(-c2cncc(N3CC(C(F)F)C3)c2)nn1)n1ccc(N2CCC[C@@H](NCC3CC3)C2)cc1=O (single isomer, unassigned) [Compound 209]
IC50 [1]: ≤ 50 nM
IC50 (Caov-3 cells): 500 to 5000 nM
IC50 (Kasumi-1 cells): 500 to 5000 nM

COc1cc(-c2nnn(C(C)n3ccc(N4CCC[C@@H](NCC5CCC5)C4)cc3=O)n2)c2cn[nH]c2c1 (single isomer, unassigned) [Compound 210]
IC50 [1]: ≤ 50 nM
IC50 (Caov-3 cells): ≤ 500 nM
IC50 (Kasumi-1 cells): 500 to 5000 nM

CC(n1cc(-c2cncc(N3CC4(C3)CC4(F)F)c2)nn1)n1ccc(N2CCC[C@@H](NCC3CC3)C2)cc1=O (single isomer, unassigned) [Compound 211]
IC50 [1]: ≤ 50 nM
IC50 (Caov-3 cells): ≤ 500 nM
IC50 (Kasumi-1 cells): ≤ 500 nM

CC(n1cc(-c2cncc(-n3ccnc3)c2)nn1)n1ccc(N2CCC[C@@H](NCC3CC3)C2)cc1=O (single isomer, unassigned) [Compound 218]
IC50 [1]: ≤ 50 nM
IC50 (Caov-3 cells): 500 to 5000 nM
IC50 (Kasumi-1 cells): > 5000 nM

CC(c1cnn(-c2cc(N3CCCC3)cnn2)c1)n1ccc(N2CCC[C@@H](NCC3CC3)C2)cc1=O (single isomer, unassigned) [Compound 219]
IC50 [1]: ≤ 50 nM
IC50 (Caov-3 cells): ≤ 500 nM
IC50 (Kasumi-1 cells): 500 to 5000 nM

CC(c1cnn(-c2cncc(N3CCCC3)n2)c1)n1ccc(N2CCC[C@@H](NCC3CC3)C2)cc1=O (single isomer, unassigned) [Compound 220]
IC50 [1]: ≤ 50 nM
IC50 (Caov-3 cells): ≤ 500 nM
IC50 (Kasumi-1 cells): ≤ 500 nM

CC(c1cnn(-c2cncc(N(C)C)n2)c1)n1ccc(N2CCC[C@@H](NCC3CC3)C2)cc1=O (single isomer, unassigned) [Compound 225]
IC50 [1]: ≤ 50 nM
IC50 (Caov-3 cells): ≤ 500 nM
IC50 (Kasumi-1 cells): ≤ 500 nM

CC(n1cnc(-c2cncc(N3CCCC3)n2)c1)n1ccc(N2CCC[C@@H](NCC3CC3)C2)cc1=O (single isomer, unassigned) [Compound 226]
IC50 [1]: ≤ 50 nM
IC50 (Caov-3 cells): ≤ 500 nM
IC50 (Kasumi-1 cells): ≤ 500 nM

CC(n1cc(-c2cncc(N3CCC(F)(F)C3)n2)nn1)n1ccc(N2CCC[C@@H](NCC3CC3)C2)cc1=O (single isomer, unassigned) [Compound 227]
IC50 [1]: ≤ 50 nM
IC50 (Caov-3 cells): ≤ 500 nM
IC50 (Kasumi-1 cells): ≤ 500 nM

CC(n1cnc(-c2cncc(N(C)C)n2)c1)n1ccc(N2CCC[C@@H](NCC3CC3)C2)cc1=O (single isomer, unassigned) [Compound 229]
IC50 [1]: ≤ 50 nM
IC50 (Caov-3 cells): ≤ 500 nM
IC50 (Kasumi-1 cells): ≤ 500 nM

CC(n1cc(-c2cncc(N3CCC(C)(C)C3)n2)nn1)n1ccc(N2CCC[C@@H](NCC3CC3)C2)cc1=O (single isomer, unassigned) [Compound 230]
IC50 [1]: ≤ 50 nM
IC50 (Caov-3 cells): ≤ 500 nM
IC50 (Kasumi-1 cells): ≤ 500 nM

COc1cncc(-c2cn(C(C)n3ccc(N4CCC[C@@H](NCC5CC5)C4)cc3=O)nn2)c1 (single isomer, unassigned) [Compound 232]
IC50 [1]: ≤ 50 nM
IC50 (Caov-3 cells): ≤ 500 nM
IC50 (Kasumi-1 cells): ≤ 500 nM

CC(n1cc(-c2cncc(N3CC4CC4C3)n2)nn1)n1ccc(N2CCC[C@@H](NCC3CC3)C2)cc1=O (single isomer, unassigned) [Compound 234]
IC50 [1]: ≤ 50 nM
IC50 (Caov-3 cells): ≤ 500 nM
IC50 (Kasumi-1 cells): ≤ 500 nM

CC(n1cc(-c2cncc(N3CC4(COC4)C3)n2)nn1)n1ccc(N2CCC[C@@H](NCC3CC3)C2)cc1=O (single isomer, unassigned) [Compound 237]
IC50 [1]: ≤ 50 nM
IC50 (Caov-3 cells): 500 to 5000 nM
IC50 (Kasumi-1 cells): 500 to 5000 nM

CC(n1cc(-c2cncc(N3CC[C@@H](C)C3)n2)nn1)n1ccc(N2CCC[C@@H](NCC3CC3)C2)cc1=O (single isomer, unassigned) [Compound 238]
IC50 [1]: ≤ 50 nM
IC50 (Caov-3 cells): ≤ 500 nM
IC50 (Kasumi-1 cells): ≤ 500 nM

CC(n1cc(-c2cncc(N3CC[C@H](C)C3)n2)nn1)n1ccc(N2CCC[C@@H](NCC3CC3)C2)cc1=O (single isomer, unassigned) [Compound 240]
IC50 [1]: ≤ 50 nM
IC50 (Caov-3 cells): ≤ 500 nM
IC50 (Kasumi-1 cells): ≤ 500 nM

CC(n1cc(-c2cncc(N3CC[C@H](F)C3)n2)nn1)n1ccc(N2CCC[C@@H](NCC3CC3)C2)cc1=O (single isomer, unassigned) [Compound 241]
IC50 [1]: ≤ 50 nM
IC50 (Caov-3 cells): ≤ 500 nM
IC50 (Kasumi-1 cells): ≤ 500 nM

CC(c1cnc(-c2cncc(N3CCCC3)n2)o1)n1ccc(N2CCC[C@@H](NCC3CC3)C2)cc1=O (single isomer, unassigned) [Compound 242]
IC50 [1]: ≤ 50 nM
IC50 (Caov-3 cells): ≤ 500 nM
IC50 (Kasumi-1 cells): ≤ 500 nM

CC(n1cnc(-c2cc(N(C)C)cnn2)c1)n1ccc(N2CCC[C@@H](NCC3CC3)C2)cc1=O (single isomer, unassigned) [Compound 243]
IC50 [1]: ≤ 50 nM
IC50 (Caov-3 cells): 500 to 5000 nM
IC50 (Kasumi-1 cells): 500 to 5000 nM

CC(n1cc(-c2cncc(N3CC[C@@H](F)C3)n2)nn1)n1ccc(N2CCC[C@@H](NCC3CC3)C2)cc1=O (single isomer, unassigned) [Compound 245]
IC50 [1]: ≤ 50 nM
IC50 (Caov-3 cells): ≤ 500 nM
IC50 (Kasumi-1 cells): ≤ 500 nM

COC1CN(c2cncc(-c3cn(C(C)n4ccc(N5CCC[C@@H](NCC6CC6)C5)cc4=O)nn3)n2)C1 (single isomer, unassigned) [Compound 246]
IC50 [1]: ≤ 50 nM
IC50 (Caov-3 cells): ≤ 500 nM
IC50 (Kasumi-1 cells): ≤ 500 nM

CC(n1cc(-c2cncc(N3CC4(CC4)C3)n2)nn1)n1ccc(N2CCC[C@@H](NCC3CC3)C2)cc1=O (single isomer, unassigned) [Compound 247]
IC50 [1]: ≤ 50 nM
IC50 (Caov-3 cells): ≤ 500 nM
IC50 (Kasumi-1 cells): ≤ 500 nM

CC(c1cnn(-c2cncc(N3CCCC3)c2)c1)n1ccc(N2CCC[C@@H](NCC3CC3)C2)cc1=O (single isomer, unassigned) [Compound 253]
IC50 [1]: ≤ 50 nM
IC50 (Caov-3 cells): ≤ 500 nM
IC50 (Kasumi-1 cells): ≤ 500 nM

CC(n1cc(-c2cncc(N3CC4(C3)CC4(F)F)n2)nn1)n1ccc(N2CCC[C@@H](NCC3CC3)C2)cc1=O (single isomer, unassigned) [Compound 254]
IC50 [1]: ≤ 50 nM
IC50 (Caov-3 cells): ≤ 500 nM
IC50 (Kasumi-1 cells): ≤ 500 nM

COc1cncc(-c2cn(C(C)c3ccc(N4CCC[C@@H](NCC5CCC5)C4)nn3)nn2)n1 (single isomer, unassigned) [Compound 258]
IC50 [1]: ≤ 50 nM
IC50 (Caov-3 cells): 500 to 5000 nM
IC50 (Kasumi-1 cells): 500 to 5000 nM

CC(c1ccc(N2CCC[C@@H](NCC3CC3)C2)cn1)n1cc(-c2cncc(N3CCCC3)n2)nn1 (single isomer, unassigned) [Compound 259]
IC50 [1]: ≤ 50 nM
IC50 (Caov-3 cells): ≤ 500 nM
IC50 (Kasumi-1 cells): ≤ 500 nM

CC(c1ccc(N2CCC[C@@H](NCC3CC3)C2)cn1)n1cc(-c2cncc(N(C)C)n2)nn1 (single isomer, unassigned) [Compound 260]
IC50 [1]: ≤ 50 nM
IC50 (Caov-3 cells): ≤ 500 nM
IC50 (Kasumi-1 cells): ≤ 500 nM

CC(c1ccc(N2CCC[C@@H](NCC3CCC3)C2)nn1)n1cc(-c2cncc(N3CC4CC4C3)n2)nn1 (single isomer, unassigned) [Compound 284]
IC50 [1]: ≤ 50 nM
IC50 (Caov-3 cells): ≤ 500 nM
IC50 (Kasumi-1 cells): ≤ 500 nM

CC(c1ccc(N2CCC[C@@H](NCC3CCC3)C2)nn1)n1cc(-c2cncc(N3CCCC3)n2)nn1 (single isomer, unassigned) [Compound 285]
IC50 [1]: ≤ 50 nM
IC50 (Caov-3 cells): ≤ 500 nM
IC50 (Kasumi-1 cells): ≤ 500 nM
